Test: Reactivity of polyols with active compounds of formula I
Type: physicochemical

Reactivity with the active compounds of formula I (undesired reaction products): practically no reactivity
SMILES: OC[C@H]1O[C@@H](O[C@H]2[C@H](O)[C@@H](O)C(O)O[C@@H]2CO)[C@H](O)[C@@H](O)[C@H]1O (stereo partly shown) [Lactose]

Reference: patent US8946229B2, “Formulations” (UCB, Inc., priority 2002, dated 2015)
